Measurements: patent US5071848A, “Tricyclic quinoline antineoplastic agents” (Abbott Laboratories, priority 1989, dated 1991)
In brackets after ≈: the same amount, converted by molar mass. Entries after “also recorded” stand apart in the source; their conditions may differ. Read-outs that look alike come from different tables or passages of the source.

Legend:
Hela cells = assay: In vitro cytotoxicity assay (three day MTT microtiter assay), Hela; type: cell-based; conditions: Homo sapiens, 72 h, read-out: In vitro tumor cell cytotoxicity (IC50), Hela
Method: (§1) IC50 's were measured in a colorimetric assay for cytotoxic activity against cultured cells according to the protocol described below:
(§2) A three day microtiter assay is used to measure the growth inhibition of cultured cells exposed to a range of drug concentrations. Metabolic activity is measured by the cell's ability to reduce the tetrazolium dye, MTT (3-(4,5-dimethylthiazol-2-yl)-2,5-diphenyltetrazolium bromide) to a quantifiable colored end-product, which absorbs at 570 nm in the visible spectrum. Surviving cells reduce the MTT dye.
(§3) Test compounds are dissolved in dimethyl sulfoxide (DMSO) and diluted, first with Earle's Balanced Salt Solution, followed by culture medium, to twice the highest concentration of compound to be tested. From this concentrated stock, two-fold serial dilutions are prepared in 96-well microtiter trays, each well containing twice the desired final concentration of compound. Each concentration is tested in triplicate and compared to triplicate drug-free controls.
(§4) The cells are grown in the same medium used for diluting the compounds. After harvesting by trypsinization*, viable cell counts are determined and cell density is adjusted to 25,000 cells/mL. Inoculum (0.1 mL), containing the cells, is then added to each well for a final concentration of 2,500 cells per well. Addition of the inoculum dilutes the test compounds to the desired final concentration.
(§5) *Adherent cells are harvested by trypsinization as follows:
(§6) 1. Remove the medium by aspiration.
(§7) 2. Rinse cell monolayer twice with Earle's Balanced Salt Solution.
(§8) 3. Add trypsin (0.05%)/EDTA (0.53 mM). For each 25 cm^2 use approximately 0.2 mL of solution, tilt to cover the monolayer, then withdraw trypsin leaving only a thin film of solution. Incubate at room temperature until cell monolayer detaches.
(§9) 4. When the cells have detached as determined by visual and/or microscopic observation, add medium containing fetal calf serum to stop the action of the trypsin and resuspend the cells. Triturate to aid dissociation of cell clumps.
(§10) 5. Determine the number of cells per milliliter by electronic cell counter (e.g. Coulter Counter) or by mixing an aliquot of cell suspension with Trypan Blue (0.4% in normal saline) and counting the viable cells using a hemacytometer.
(§11) Microtiter trays are incubated for three days at 36° C. in a humidified atmosphere containing 5% carbon dioxide.
(§12) After three days, 20 microtiters of 5 mg/mL MTT in phosphate-buffered saline solution is added to each well. Trays are returned to the incubator for two to four hours to allow the surviving cells to reduce the dye. Medium and unreduced dye are removed by aspiration. DMSO is added to each well to dissolve the water insoluble, colored end product of the dye reduction so that it can be measured spectrophotometrically at 570 nm.

[1] = test system: P388.D1 leukemia cell line; assay: In vitro cytotoxicity assay (three day MTT microtiter assay), P388.D1; type: cell-based; conditions: Mus musculus, P388D1, 72 h, read-out: In vitro tumor cell cytotoxicity (IC50), P388.D1
Method: (§13) The cytotoxity of the compounds of the present invention is illustrated in Table 6. IC50 's were measured in a colorimetric assay for cytotoxic activity against cultured cells according to the protocol described below:
as §2, §3, §4, §5, §6, §7, §8, §9, §10, §11
After three days, 20 microtiters of 5 mg/mL MTT in phosphate-buffered saline solution is added to each well. Trays are returned to the incubator for two to four hours to allow the surviving cells to reduce the dye. Medium and unreduced dye are removed by aspiration. DMSO is added to each well to dissolve the water insoluble, colored end product of the dye reduction so that it can be measured spectrophotometrically at 570 nm. The IC50 is determined as the concentration of compound tested required to reduce the absorbance at 570 nm to 50% of non-drug treated control values.
^c P388 D1 is a leukemia cell line.

A549 cell line = assay: In vitro cytotoxicity assay (three day MTT microtiter assay), A549; type: cell-based; conditions: Homo sapiens, read-out: In vitro tumor cell cytotoxicity (IC50), A549
Method: as §1, §2, §3, §4, §5, §6, §7, §8, §9, §10, §11, §12

[2] = test system: HCT-8 colon cancer cell line; assay: In vitro cytotoxicity assay (three day MTT microtiter assay), HCT-8; type: cell-based, human; conditions: read-out: In vitro tumor cell cytotoxicity (IC50), HCT-8
Method: as §1, §2
Test compounds are dissolved in dimethyl sulfoxide (DMSO) and diluted, first with Earle's Balanced Salt Solution, followed by culture medium, to twice the highest concentration of compound to be tested. […]
The cells are grown in the same medium used for diluting the compounds. After harvesting by trypsinization*, viable cell counts are determined and cell density is adjusted to 25,000 cells/mL. […]
(§14) 4. When the cells have detached as determined by visual and/or microscopic observation, add medium containing fetal calf serum to stop the action of the trypsin and resuspend the cells. […]
After three days, 20 microtiters of 5 mg/mL MTT in phosphate-buffered saline solution is added to each well. […] DMSO is added to each well to dissolve the water insoluble, colored end product of the dye reduction so that it can be measured spectrophotometrically at 570 nm.

DNA topoisomerases = conditions: in words; known antitumor drugs; cited from earlier work
DNA topoisomerase II = assay: DNA Breakage Assay: topoisomerase II-mediated DNA breakage (linearized 32P-labeled PBR 322 plasmid, agarose gel); type: biochemical, calf; parameters: key to Topoisomerase II-mediated DNA breakage, extent of breakage: SB: strong breakage; MB: moderate breakage; WB: weak breakage; conditions: for Topoisomerase II-mediated DNA breakage, extent of breakage: at the concentration given; for Topoisomerase II-mediated DNA breakage, Concentration: concentration of compound which cleaves the DNA to smaller fragments, 30 minutes incubation
Method: Antitumor activity was assayed using the DNA Breakage Assay described below.
The DNA breakage assay requires two major reagents: DNA topoisomerase II and radiolabeled DNA. DNA topoisomerase II (topo II) was isolated from calf thymus as described by B. D. Holligan, et al. in J. Biol. Chem., 260, 2475-2482 (1985). Pure enzyme or partially purified extracts enriched in topo II activity may be used. PBR 322 plasmid was used as the DNA substrate. This plasmid, which is isolated in the closed circular form, is first linearized using, a restriction enzyme which cuts the plasmid in only one place. The newly exposed ends of the plasmid are then labeled with the radionuclide, 32P, using standard techniques described by T. Maniatis, et al. in "Molecular Cloning", Cold Spring Harbor Press, p. 115 (1982).
The enzyme and the radiolabeled DNA are added together first, then drug is added. After an incubation period of 30 minutes, the mixtures are quenched using 1% SDS. The mixtures are then subjected to agarose gel electrophoresis which separates the full length, linear substrate DNA from any small fragments that might be formed as a consequence of drug action. Smaller fragments run with a higher mobility. The distribution of the DNA species in the gel is assessed by autoradiography as described by T. Maniatis, et al. in "Molecular Cloning", Cold Spring Harbor Press, p. 115 (1982).
DNA breakage activity is assessed based on the level of substrate lost, the level of DNA appearing as smaller pieces running faster in the gel, and the distribution of these smaller pieces in the gel. The last criterion is important since drug-induced DNA cleavage that is enzyme-mediated fragmentation results in specific banding patterns due to the fact that the enzyme binds to specific sequences along the DNA molecule. A definite banding pattern is thus indicative of topo II-mediated cleavage and correlates well with anti-tumor activity.

[3] = test system: Lewis Lung Carcinoma (LLC1) cells; assay: In vitro cytotoxicity assay (three day MTT microtiter assay), LLC1; type: cell-based, murine; conditions: Mus musculus, LLC1, 72 h, read-out: In vitro tumor cell cytotoxicity (IC50), LLC1
Method: as §13, §2, §3, §4, §5, §6, §7
3. […]
as §14
After three days, 20 microtiters of 5 mg/mL MTT in phosphate-buffered saline solution is added to each well. […] DMSO is added to each well to dissolve the water insoluble, colored end product of the dye reduction so that it can be measured spectrophotometrically at 570 nm. […]

[4] = test system: Lewis Lung carcinoma (LL); assay: In vivo antitumor activity, Lewis Lung carcinoma (LL), tumor weight inhibition; parameters: species or system BDF1 mice; conditions: IP, day 1 to day 9, determined on day 14
Method: (§15) The in vivo data presented in Table 7 was determined in BDF1 mice for two murine cancer models, using 6 to 10 animals per test group. In the case of Lewis Lung carcinoma (LL) the mice are inoculated subcutaneously (SC) in the axillary region with a puncture in the inguinal area with the tumor on day 0. The compound being tested is administered intraperitoneally (IP) from day 1 to day 9 for a total of nine injections. The tumors are weighed on day 14 and the weight inhibition expressed as the median weight ratio of treated (T) to control (C) tumors. In the case of P388 Leukemia cells, a suspension of diluted ascites fluid (0.1 mL) containing 1×10^6 cells is implanted IP into the mice on day 0 and the compound being tested is administered IP from day 1 to day 5 for a total of five injections. Survival was monitored for 30 days and the increased lifespan expressed as median survival time of treated (T) to control (C) mice.

P388 Leukemia = assay: In vivo antitumor activity, P388 Leukemia, increased lifespan; parameters: species or system BDF1 mice; conditions: IP, day 1 to day 5, survival monitored 30 days
Method: as §15

## COc1cc([C@@H]2c3cc4c(cc3[C@@H](O[C@@H]3O[C@@H]5CO[C@@H](C)O[C@H]5[C@H](O)[C@H]3O)[C@H]3COC(=O)[C@H]23)OCO4)cc(OC)c1O [Etoposide, etoposide, reference compound]
Hela cells; HeLa
  IC50: 4 µg/mL (≈ 6.8 µM)
[1]
  IC50: 0.05 µg/mL (≈ 0.085 µM)
A549 cell line; A549, 72 h
  IC50: 1 µg/mL (≈ 1.7 µM)
[2]; Homo sapiens, HCT-8, 72 h
  IC50: 0.68 µg/mL (≈ 1.16 µM)
DNA topoisomerases
  effect on DNA topoisomerase-mediated DNA breakage-rejoining / cleavage: found to affect the breakage-rejoining reaction of mammalian DNA mediated by DNA topoisomerases; also recorded: known to act by inducing topo II mediated DNA cleavage

## O=C1c2c(O)ccc(O)c2C(=O)c2c(NCCNCCO)ccc(NCCNCCO)c21 [mitoxantrone]
DNA topoisomerases
  effect on DNA topoisomerase-mediated DNA breakage-rejoining / cleavage: found to affect the breakage-rejoining reaction of mammalian DNA mediated by DNA topoisomerases

## CCn1c2s[nH]c(=O)c2c(=O)c2cc(F)c(N3CCNCC3)c(F)c21 [Example 14]
DNA topoisomerase II
  Topoisomerase II-mediated DNA breakage, extent of breakage: MB
  Topoisomerase II-mediated DNA breakage, Concentration: 64 µg/mL
Hela cells; HeLa
  IC50: 4 µg/mL (≈ 10.9 µM)
[3]
  IC50: 1.5 µg/mL (≈ 4.09 µM)

## CC1CN(c2c(F)cc3c(=O)c4c(=O)[nH]sc4n(C4CC4)c3c2F)CCN1 (stereo not shown) [Example 3]
DNA topoisomerase II
  Topoisomerase II-mediated DNA breakage, extent of breakage: SB
  Topoisomerase II-mediated DNA breakage, Concentration: 32 µg/mL
[1]
  IC50: 3.1 µg/mL (≈ 7.9 µM)
A549 cell line; 72 h, A549, three days, MTT
  IC50: 8.3 µg/mL (≈ 21.2 µM)
[2]; 72 h, HCT-8 human colon cancer, three days, MTT
  IC50: 14 µg/mL (≈ 35.7 µM)
[4]; 31.5 mg/kg
  LL (T/C), median weight ratio of treated to control tumors: 0.81
[4]; 62.5 mg/kg
  LL (T/C), median weight ratio of treated to control tumors: 0.75
[4]; 125 mg/kg
  LL (T/C), median weight ratio of treated to control tumors: 0.59
[4]; 250 mg/kg
  LL (T/C), median weight ratio of treated to control tumors: 0.35
P388 Leukemia; 31.5 mg/kg
  P388 Leukemia % T/C, median lifespan of treated compared to control mice: 145%
P388 Leukemia; 62.5 mg/kg
  P388 Leukemia % T/C, median lifespan of treated compared to control mice: 145%
P388 Leukemia; 125 mg/kg
  P388 Leukemia % T/C, median lifespan of treated compared to control mice: 160%
P388 Leukemia; 250 mg/kg
  P388 Leukemia % T/C, median lifespan of treated compared to control mice: 160%

## O=c1[nH]sc2c1c(=O)c1cc(F)c(N3CCC(O)CC3)c(F)c1n2C1CC1 [Example 10]
DNA topoisomerase II
  Topoisomerase II-mediated DNA breakage, extent of breakage: SB
  Topoisomerase II-mediated DNA breakage, Concentration: 32 µg/mL
[1]
  IC50: 0.23 µg/mL (≈ 0.585 µM)
A549 cell line; 72 h, A549, three days, MTT
  IC50: 2.9 µg/mL (≈ 7.37 µM)
P388 Leukemia; 12.5 mg/kg
  P388 Leukemia % T/C, median lifespan of treated compared to control mice: 129%
P388 Leukemia; 25 mg/kg
  P388 Leukemia % T/C, median lifespan of treated compared to control mice: 133%
P388 Leukemia; 50 mg/kg
  P388 Leukemia % T/C, median lifespan of treated compared to control mice: 133%
P388 Leukemia; 100 mg/kg
  P388 Leukemia % T/C, median lifespan of treated compared to control mice: 117%

## O=c1[nH]sc2c1c(=O)c1cc(F)c(N3CCNCC3)c(F)c1n2C1CC1 [Example 2]
DNA topoisomerase II
  Topoisomerase II-mediated DNA breakage, extent of breakage: SB
  Topoisomerase II-mediated DNA breakage, Concentration: 32 µg/mL
Hela cells; HeLa
  IC50: 3.9 µg/mL (≈ 10.3 µM)
[3]
  IC50: 0.99 µg/mL (≈ 2.62 µM)

## NC1CCN(c2c(F)cc3c(=O)c4c(=O)[nH]sc4n(C4CC4)c3c2F)C1 (stereo not shown) [Example 11]
DNA topoisomerase II
  Topoisomerase II-mediated DNA breakage, extent of breakage: SB
  Topoisomerase II-mediated DNA breakage, Concentration: 32 µg/mL
Hela cells; Hela cells, three days, MTT
  IC50: 0.95 µg/mL (≈ 2.51 µM)
[3]; Lewis Lung Carcinoma, three days, MTT
  IC50: 0.52 µg/mL (≈ 1.37 µM)

## COc1cc([C@@H]2c3cc4c(cc3[C@@H](O[C@@H]3O[C@@H]5CO[C@@H](c6cccs6)O[C@H]5[C@H](O)[C@H]3O)[C@H]3COC(=O)[C@H]23)OCO4)cc(OC)c1O [teniposide]
DNA topoisomerases
  effect on DNA topoisomerase-mediated DNA breakage-rejoining / cleavage: found to affect the breakage-rejoining reaction of mammalian DNA mediated by DNA topoisomerases; also recorded: known to act by inducing topo II mediated DNA cleavage
